US20110293511A1, “SPECIFIC BINDING PROTEINS AND USES THEREOF” (priority 2009, published 2011)

Tested on: A431 xenografts
Experiment: s.c. xenograft therapy study
Type: in vivo, nude mice
Details: preventative model; 0.1 mg mAb806; 400 μg AG1478
Experimental: Tumor cells (3×10^6) in […] of PBS were inoculated subcutaneously into both flanks of 4-6 week old female nude mice (Animal Research Centre, Western Australia, Australia). […] Treatment was continued for a total of 6 doses, 3 times per week for 2 weeks. In the established model, treatment was started when tumors had reached a mean volume of 65±6.42 mm^3 (U87MG.Δ2-7), 84±9.07 mm3 (U87MG), 73±7.5 mm^3 (U87MG.wtEGFR) or 201±19.09 mm^3 (A431 tumors). Tumor volume in mm^3 was determined using the formula (length×width)/2, where length was the longest axis and width the measurement at right angles to the length (Clark et al. (2000) Therapeutic efficacy of anti-Lewis (y) humanized 3S 193 radioimmunotherapy in a breast cancer model: enhanced activity when combined with Taxol chemotherapy. Clin. Cancer Res. 6, 3621-3628). Data was expressed as mean tumor volume±S.E. for each treatment group. Statistical analysis was performed at given time points using Student's t-test. […]
To establish xenografts, mice were injected subcutaneously into the right and left inguinal mammary line with 1×10^6 A431 adenocarcinoma cells or 1×10^6 U87MG.de2-7 glioma cells in 100 μl of PBS. Tumor volume (TV) was calculated by the formula [(length×width)/2] where length was the longest axis and width the measurement at right angles to length. […]

Compound: COc1cc2ncnc(Nc3cccc(Cl)c3)c2cc1OC [AG1478, 4-(3-Chloroanilino)-6,7-dimethoxyquinazoline, reference compound]
- reduction of tumor volume: significant reduction of tumor volume
